According to publication PMC12652113, “Fluorescent Albumin-Binding N-Propylbenzene Indolenine-Based Squaraines as Potential Candidates for Prostate Cancer Photodynamic Therapy Photosensitizers” (International Journal of Molecular Sciences, 2025):
Like-named read-outs stand apart in the source and are kept apart here.

Legend:
[1] = target: human serum albumin (HSA) (Homo sapiens, UniProt P02768); assay: Fluorometric squaraine-albumin binding titration; settings: for detection limit (DL): HSA detection, DL=3σ/S; for quantification limit (QL): HSA quantification, QL=10σ/S; for fluorescence intensity without protein (F0): dye 2.0 µM in phosphate buffer, no HSA; for fluorescence intensity at the highest protein concentration (F): dye 2.0 µM, highest HSA concentration; for Stokes shift (ΔS) / absorption maximum (λabs) / emission maximum (λem) / fluorescence quantum yield (ΦF): phosphate buffer (pH 7.4), HSA presence; for F/F0: ratio of fluorescence with HSA to fluorescence without HSA; for incubation time to reach maximum fluorescence with HSA: room temperature, protected from light; for incubation time to reach maximum fluorescence with HSA / incubation time for maximum interaction with HSA: read at 0 min, 3 h, 24 h
human serum albumin (HSA), sequence (P02768 25-609): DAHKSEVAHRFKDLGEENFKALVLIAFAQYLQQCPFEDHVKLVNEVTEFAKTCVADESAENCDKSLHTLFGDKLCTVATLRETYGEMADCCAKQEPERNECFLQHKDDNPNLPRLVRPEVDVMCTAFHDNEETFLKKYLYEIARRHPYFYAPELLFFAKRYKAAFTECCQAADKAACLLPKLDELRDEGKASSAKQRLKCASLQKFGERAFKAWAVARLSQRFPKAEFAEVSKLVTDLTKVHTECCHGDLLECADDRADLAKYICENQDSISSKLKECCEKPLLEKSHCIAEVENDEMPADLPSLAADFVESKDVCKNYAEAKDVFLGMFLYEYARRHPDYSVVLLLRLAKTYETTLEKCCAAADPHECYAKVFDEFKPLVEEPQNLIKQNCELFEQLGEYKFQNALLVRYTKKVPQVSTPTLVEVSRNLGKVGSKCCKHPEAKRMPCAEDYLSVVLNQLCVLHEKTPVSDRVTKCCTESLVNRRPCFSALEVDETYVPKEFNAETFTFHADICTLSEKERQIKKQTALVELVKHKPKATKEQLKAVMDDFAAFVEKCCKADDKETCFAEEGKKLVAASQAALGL
Experimental: For fluorometric experiments, the squaraine stock solutions were initially prepared in dimethylformamide and subsequently diluted with phosphate buffer for the protein–dye interaction analysis. Human serum albumin stock solution was then added to these mixtures, while keeping the dye concentration fixed at 2.0 µM and varying the protein concentration from 0 to 3.0 µM (0.0 to 3.0 µM for squaraines 5, 9, and 11, and from 0 to 6.0 µM for squaraine 13). Fluorescence intensities of the resulting solutions were recorded after 0, 3, and 24 h of incubation with the protein. The excitation wavelengths and excitation/emission slit widths used for the measurements were optimized for each dye, as listed in Table 6.
The squaraine-albumin binding constants was calculated using the Benesi–Hildebrand equation (Equation (3)) based on the data obtained from the fluorescence experiments:(3) 1/Fx−F0=1/F∞−F0+1/Kb(F∞−F0)1/[HSA] where F0 is the fluorescence intensity of the squaraine in albumin-free buffer, Fx is the fluorescence observed after protein incubation at a specific concentration, F∞ is the fluorescence at the point of complete interaction, Kb is the binding constant, and [HSA] is the albumin concentration.
Quantification and detection limits (QL and DL, respectively) were determined from a calibration curve of maximum fluorescence intensity against protein concentration. The slope of this curve was then used to calculate the method’s sensitivity using Equations (4) and (5):(4) QL=10σ/S (5) DL=3σ/S where σ refers to the blank standard deviation and S (sensitivity) to the linear regression slope between the fluorescence intensity and albumin concentration.

[2] = Absorption and fluorescence photophysical characterization in organic solvents; format: physicochemical
Experimental: UV–Vis spectra were recorded on a Perkin-Elmer Lambda 25 spectrophotometer (Perkin-Elmer, Waltham, MA, USA) using Hellma Analytics quartz cuvettes (1 cm path length; Hellma Analytics, Müllheim, Germany). Spectral data are reported as maximum absorption wavelength (λmax, nm) and molar absorptivity (ε, M^−1·cm^−1). The latter was calculated according to the Lambert–Beer law from calibration plots of absorbance at λmax versus known dye concentrations.
Ultraviolet–visible absorption spectra were obtained at room temperature using a PerkinElmer Lambda 25 spectrophotometer, while fluorescence emission data were collected on a Horiba Jobin Yvon FluoroMax-4 fluorometer. Singlet oxygen and photostability tests and measurements were carried out on a BioRad xMark microplate reader (Bio-Rad, Hercules, CA, USA).
[…] All stock solutions were prepared at 0.67 mM concentration and stored in the dark at 4 °C until further use. For spectroscopic characterization, 1.0 µM stock solutions of the squaraine dyes in dimethyl sulfoxide were serially diluted into a series of solvents (chloroform, dimethyl sulfoxide, methanol, and phosphate buffer) to obtain at least five defined concentrations. The absorption spectra of these dilutions were recorded and used to calculate molar extinction coefficients according to the Beer–Lambert law. Additional working solutions at a 1.0 µM concentration were prepared in dimethyl sulfoxide and buffer, and 1.0% Triton X-100 was added where required to investigate dye aggregation.
The emission areas were integrated, and relative quantum yields were calculated following established methodologies, considering both absorbance at the excitation wavelength and the refractive index of the solvent. The calculation was performed using Equation (2), where “dye” and “ref” denote the squaraine dyes and the reference compound, respectively; I corresponds to the integrated emission intensity, A to the absorbance value at the excitation wavelength, and η to the refractive index of the solvent:(2) ΦF(dye)= ΦF(Std)Idye/Iref Aref/Adye ηdye2/ηref2

[3] = phosphate buffer, bound vs free
[4] = slope of fluorescence intensity vs HSA concentration
[5] = DMSO, relative to zinc phthalocyanine

CC1(C)C(=CC2=C([O-])C(=CC3=[N+](CCCc4ccccc4)c4ccccc4C3(C)C)C2=O)N(CCCc2ccccc2)c2ccccc21 [Dye 5, 4-[3,3-Dimethyl-1-(3-phenylpropyl)-indol-1-ium-2-ylmethylene]-2-[3,3-dimethyl-1-(3-phenylpropyl)indolin-2-ylidenemethyl]-3-oxocyclobut-1-en-1-olate]
sensitivity (S) [1]: 209000 nM⁻¹ | detection limit (DL) [1]: 266 nM | quantification limit (QL) [1]: 886 nM | fluorescence intensity without protein (F0) [1]: 11.46 a.u. | fluorescence intensity at the highest protein concentration (F) [1]: 680.15 a.u. | Stokes shift (ΔS) [1]: 45 nm | absorption maximum (λabs) [1]: 604 nm | emission maximum (λem) [1]: 649 nm | fluorescence quantum yield (ΦF) [1]: 0.20 | blue shift in maximum emission wavelength upon HSA binding [1, 3]: 47 nm | reduction in Stokes shift upon HSA binding [1, 3]: 50% | F/F0 [1]: 59.35 | incubation time to reach maximum fluorescence with HSA [1]: 24 h | sensitivity (S) [1, 4]: 209000 nM⁻¹ | Stokes shift (ΔS) ([2]; DMSO): 13 nm | absorption maximum (λabs) ([2]; DMSO): 646 nm | emission maximum (λem) ([2]; DMSO): 659 nm | molar absorption coefficient (ε) ([2]; DMSO): 293000 M⁻¹ cm⁻¹ | fluorescence quantum yield (ΦF) [2, 5]: 1.00 | Stokes shift (ΔS) ([2]; chloroform (CFM)): 1 nm | absorption maximum (λabs) ([2]; chloroform (CFM)): 638 nm | emission maximum (λem) ([2]; chloroform (CFM)): 639 nm | fluorescence quantum yield (ΦF) ([2]; chloroform (CFM)): 0.46 | molar absorption coefficient (ε) ([2]; chloroform (CFM)): 428000 M⁻¹ cm⁻¹ | Stokes shift (ΔS) ([2]; methanol (MeOH)): 13 nm | absorption maximum (λabs) ([2]; methanol (MeOH)): 631 nm | emission maximum (λem) ([2]; methanol (MeOH)): 644 nm | fluorescence quantum yield (ΦF) ([2]; methanol (MeOH)): 0.16 | molar absorption coefficient (ε) ([2]; methanol (MeOH)): 422000 M⁻¹ cm⁻¹

CC1(C)C(=CC2=C(N)C(=CC3=[N+](CCCc4ccccc4)c4ccccc4C3(C)C)C2=O)N(CCCc2ccccc2)c2ccccc21.[I-] [Dye 9, 2-{2-Amino-3-[3,3-dimethyl-1-(3-phenylpropyl)indolin-2-ylidenemethyl]-4-oxocyclobut-2-en-1-ylidenemethyl}-3,3-dimethyl-1-(3-phenylpropyl)-indol-1-ium Iodide]
sensitivity (S) [1]: 318000 nM⁻¹ | detection limit (DL) [1]: 324 nM | quantification limit (QL) [1]: 1079 nM | fluorescence intensity without protein (F0) [1]: 9.30 a.u. | fluorescence intensity at the highest protein concentration (F) [1]: 917.53 a.u. | Stokes shift (ΔS) [1]: 8 nm | absorption maximum (λabs) [1]: 651 nm | emission maximum (λem) [1]: 659 nm | fluorescence quantum yield (ΦF) [1]: 0.07 | F/F0 [1]: 98.66 | incubation time for maximum interaction with HSA [1]: immediately upon addition to the protein solution | sensitivity (S) [1, 4]: 318 µM | Stokes shift (ΔS) ([2]; DMSO): 12 nm | absorption maximum (λabs) ([2]; DMSO): 652 nm | emission maximum (λem) ([2]; DMSO): 664 nm | molar absorption coefficient (ε) ([2]; DMSO): 232000 M⁻¹ cm⁻¹ | fluorescence quantum yield (ΦF) [2, 5]: 0.12 | Stokes shift (ΔS) ([2]; chloroform (CFM)): 9 nm | absorption maximum (λabs) ([2]; chloroform (CFM)): 647 nm | emission maximum (λem) ([2]; chloroform (CFM)): 656 nm | fluorescence quantum yield (ΦF) ([2]; chloroform (CFM)): 0.08 | molar absorption coefficient (ε) ([2]; chloroform (CFM)): 330000 M⁻¹ cm⁻¹ | Stokes shift (ΔS) ([2]; methanol (MeOH)): 12 nm | absorption maximum (λabs) ([2]; methanol (MeOH)): 640 nm | emission maximum (λem) ([2]; methanol (MeOH)): 652 nm | fluorescence quantum yield (ΦF) ([2]; methanol (MeOH)): 0.02 | molar absorption coefficient (ε) ([2]; methanol (MeOH)): 303000 M⁻¹ cm⁻¹

CNC1=C(C=C2N(CCCc3ccccc3)c3ccccc3C2(C)C)C(=O)C1=CC1=[N+](CCCc2ccccc2)c2ccccc2C1(C)C.[I-] [Dye 11, 2-{3-[3,3-Dimethyl-1-(3-phenylpropyl)indolin-2-ylidenemethyl]-2-(methylamino)-4-oxocyclobut-2-en-1-ylidenemethyl}-3,3-dimethyl-1-(3-phenylpropyl)-indol-1-ium Iodide]
detection limit (DL) [1]: 420 nM | quantification limit (QL) [1]: 1401 nM | fluorescence intensity without protein (F0) [1]: 1.00 a.u. | fluorescence intensity at the highest protein concentration (F) [1]: 360.94 a.u. | Stokes shift (ΔS) [1]: 10 nm | absorption maximum (λabs) [1]: 652 nm | emission maximum (λem) [1]: 662 nm | fluorescence quantum yield (ΦF) [1]: 0.04 | incubation time for maximum interaction with HSA [1]: immediately upon addition to the protein solution | sensitivity (S) [1, 4]: 119 µM | Stokes shift (ΔS) ([2]; DMSO): 12 nm | absorption maximum (λabs) ([2]; DMSO): 663 nm | emission maximum (λem) ([2]; DMSO): 675 nm | molar absorption coefficient (ε) ([2]; DMSO): 212000 M⁻¹ cm⁻¹ | fluorescence quantum yield (ΦF) [2, 5]: 0.04 | Stokes shift (ΔS) ([2]; chloroform (CFM)): 13 nm | absorption maximum (λabs) ([2]; chloroform (CFM)): 657 nm | emission maximum (λem) ([2]; chloroform (CFM)): 670 nm | fluorescence quantum yield (ΦF) ([2]; chloroform (CFM)): 0.10 | molar absorption coefficient (ε) ([2]; chloroform (CFM)): 202000 M⁻¹ cm⁻¹ | Stokes shift (ΔS) ([2]; methanol (MeOH)): 11 nm | absorption maximum (λabs) ([2]; methanol (MeOH)): 650 nm | emission maximum (λem) ([2]; methanol (MeOH)): 661 nm | fluorescence quantum yield (ΦF) ([2]; methanol (MeOH)): 0.01 | molar absorption coefficient (ε) ([2]; methanol (MeOH)): 174000 M⁻¹ cm⁻¹

CC1(C)C(=CC2=C(NCc3ccc4ccc5cccc6ccc3c4c56)C(=CC3=[N+](CCCc4ccccc4)c4ccccc4C3(C)C)C2=O)N(CCCc2ccccc2)c2ccccc21.[I-] [Dye 14, 2-({3-[3,3-dimethyl-1-(3-phenylpropyl)indolin-2-ylidenemethyl]-4-oxo-2-[(pyren-1-ylmethyl)amino]cyclobut-2-en-1-ylidene}methyl)-3,3-dimethyl-1-(3-phenylpropyl)-indol-1-ium Iodide]
detection limit (DL) [1]: 361 nM | quantification limit (QL) [1]: 1203 nM | fluorescence intensity without protein (F0) [1]: 4.12 a.u. | fluorescence intensity at the highest protein concentration (F) [1]: 115.89 a.u. | Stokes shift (ΔS) [1]: 4 nm | absorption maximum (λabs) [1]: 663 nm | emission maximum (λem) [1]: 667 nm | fluorescence quantum yield (ΦF) [1]: 0.01 | F/F0 [1]: 28.13 | incubation time to reach maximum fluorescence with HSA [1]: 24 h | sensitivity (S) [1, 4]: 39 µM | Stokes shift (ΔS) ([2]; DMSO): 15 nm | absorption maximum (λabs) ([2]; DMSO): 661 nm | emission maximum (λem) ([2]; DMSO): 676 nm | molar absorption coefficient (ε) ([2]; DMSO): 197000 M⁻¹ cm⁻¹ | fluorescence quantum yield (ΦF) [2, 5]: 0.05 | Stokes shift (ΔS) ([2]; chloroform (CFM)): 13 nm | absorption maximum (λabs) ([2]; chloroform (CFM)): 658 nm | emission maximum (λem) ([2]; chloroform (CFM)): 671 nm | fluorescence quantum yield (ΦF) ([2]; chloroform (CFM)): 0.06 | molar absorption coefficient (ε) ([2]; chloroform (CFM)): 281000 M⁻¹ cm⁻¹ | Stokes shift (ΔS) ([2]; methanol (MeOH)): 13 nm | absorption maximum (λabs) ([2]; methanol (MeOH)): 650 nm | emission maximum (λem) ([2]; methanol (MeOH)): 663 nm | fluorescence quantum yield (ΦF) ([2]; methanol (MeOH)): 0.01 | molar absorption coefficient (ε) ([2]; methanol (MeOH)): 285000 M⁻¹ cm⁻¹
